We go through eight compounds from PubChem BioAssay AID1259407 (Chemical Carcinogenesis Research Information System (CCRIS), 2018).

For the data set, the system named is CCRIS mutagenicity, Ames/micronucleus/aberration tests. As to the kind of experiment: CCRIS mutagenicity studies.
The mark [1] stands for this setting: Test System: Mouse lymphoma, Strain/Indicator: L5178Y (tk+/tk-), Metabolic Activation: None, Method: Suspension/plate.
The mark [2] stands for this setting: Test System: Mouse lymphoma, Strain/Indicator: L5178Y (tk+/tk-), Metabolic Activation: Rat, Liver, S-9, Aroclor 1254, Method: Suspension/plate.
Where [3] appears, read: Test System: AMES SALMONELLA TYPHIMURIUM, Strain/Indicator: TA98, Metabolic Activation: NONE, Method: STANDARD PLATE.
[4] abbreviates: Test System: AMES SALMONELLA TYPHIMURIUM, Strain/Indicator: TA98, Metabolic Activation: RAT, LIVER, S-9, AROCLOR 1254, Method: STANDARD PLATE.
Where [5] appears, read: Test System: AMES SALMONELLA TYPHIMURIUM, Strain/Indicator: TA100, Metabolic Activation: NONE, Method: STANDARD PLATE.
Where [6] appears, read: Test System: AMES SALMONELLA TYPHIMURIUM, Strain/Indicator: TA100, Metabolic Activation: RAT, LIVER, S-9, AROCLOR 1254, Method: STANDARD PLATE.
The mark [7] stands for this setting: Test System: AMES SALMONELLA TYPHIMURIUM, Strain/Indicator: TA1535, Metabolic Activation: NONE, Method: STANDARD PLATE.
Setting [8] is: Test System: AMES SALMONELLA TYPHIMURIUM, Strain/Indicator: TA1535, Metabolic Activation: RAT, LIVER, S-9, AROCLOR 1254, Method: STANDARD PLATE.
The mark [9] stands for this setting: Test System: AMES SALMONELLA TYPHIMURIUM, Strain/Indicator: TA1537, Metabolic Activation: HAMSTER, LIVER, S-9, AROCLOR 1254, Method: STANDARD PLATE.
The mark [10] stands for this setting: Test System: AMES SALMONELLA TYPHIMURIUM, Strain/Indicator: TA1537, Metabolic Activation: NONE, Method: STANDARD PLATE.
The mark [11] stands for this setting: Test System: AMES SALMONELLA TYPHIMURIUM, Strain/Indicator: TA1537, Metabolic Activation: RAT, LIVER, S-9, AROCLOR 1254, Method: STANDARD PLATE.

Active and inactive are the calls of the source. No rule for the calls is given here.

For `CC(C)OC(=O)c1cc(NC(=S)OC(C)C)ccc1Cl`, the mutagenic call is, setting by setting: under setting [1], “inactive; negative”; under setting [2], “inactive; negative”.
As for `O=C(/C=C/c1ccc(O)c(O)c1)O[C@@H]1C[C@](O)(C(=O)O)C[C@@H](O)[C@H]1O`, the mutagenic call (Test System: AMES SALMONELLA TYPHIMURIUM, Strain/Indicator: TA98, Metabolic Activation: HAMSTER, LIVER, S-9, AROCLOR 1254, Method: STANDARD PLATE) was “inactive; negative”; the mutagenic call under setting [3] was “inactive; negative”; the mutagenic call under setting [4] is “inactive; negative”; the mutagenic call (Test System: AMES SALMONELLA TYPHIMURIUM, Strain/Indicator: TA100, Metabolic Activation: HAMSTER, LIVER, S-9, AROCLOR 1254, Method: STANDARD PLATE) was “inactive; negative”; the mutagenic call under setting [5] is “inactive; negative”; the mutagenic call under setting [6] was “inactive; negative”. The mutagenic call runs as follows: (Test System: AMES SALMONELLA TYPHIMURIUM, Strain/Indicator: TA1535, Metabolic Activation: HAMSTER, LIVER, S-9, AROCLOR 1254, Method: STANDARD PLATE) “inactive; negative”; under setting [7], “inactive; negative”; under setting [8], “inactive; negative”; under setting [9], “inactive; negative”; under setting [10], “inactive; negative”; under setting [11], “inactive; negative”. Moreover, the mutagenic call is, setting by setting: (Test System: AMES SALMONELLA TYPHIMURIUM, Strain/Indicator: TA1538, Metabolic Activation: HAMSTER, LIVER, S-9, AROCLOR 1254, Method: STANDARD PLATE) “inactive; negative”; (Test System: AMES SALMONELLA TYPHIMURIUM, Strain/Indicator: TA1538, Metabolic Activation: NONE, Method: STANDARD PLATE) “inactive; negative”; (Test System: AMES SALMONELLA TYPHIMURIUM, Strain/Indicator: TA1538, Metabolic Activation: RAT, LIVER, S-9, AROCLOR 1254, Method: STANDARD PLATE) “inactive; negative”; (Test System: MOUSE LYMPHOMA, Strain/Indicator: L5178Y (TK+/TK-), Metabolic Activation: NONE, Method: SUSPENSION/PLATE) “inactive; negative. reevaluation of results: negative”; (Test System: MOUSE LYMPHOMA, Strain/Indicator: L5178Y (TK+/TK-), Metabolic Activation: RAT, LIVER, S-9, AROCLOR 1254, Method: SUSPENSION/PLATE) “active; positive. reevaluation of results: positive”.
As to `CC1=C(C(=O)OCCN(Cc2ccccc2)c2ccccc2)C(c2cccc([N+](=O)[O-])c2)C(P2(=O)OCC(C)(C)CO2)=C(C)N1` (stereo unspecified), the mutagenic call is, setting by setting: (Test System: AMES SALMONELLA TYPHIMURIUM, Strain/Indicator: TA98, Metabolic Activation: NONE) “inactive; negative”; (Test System: AMES SALMONELLA TYPHIMURIUM, Strain/Indicator: TA98, Metabolic Activation: RAT, LIVER, S-9, PHENOBARBITAL AND 5,6-BENZOFLAVONE) “inactive; negative”; (Test System: AMES SALMONELLA TYPHIMURIUM, Strain/Indicator: TA100, Metabolic Activation: NONE) “inactive; negative”; (Test System: AMES SALMONELLA TYPHIMURIUM, Strain/Indicator: TA100, Metabolic Activation: RAT, LIVER, S-9, PHENOBARBITAL AND 5,6-BENZOFLAVONE) “inactive; negative”; (Test System: AMES SALMONELLA TYPHIMURIUM, Strain/Indicator: TA1535, Metabolic Activation: NONE) “inactive; negative”; (Test System: AMES SALMONELLA TYPHIMURIUM, Strain/Indicator: TA1535, Metabolic Activation: RAT, LIVER, S-9, PHENOBARBITAL AND 5,6-BENZOFLAVONE) “inactive; negative”. Besides, the mutagenic call reads like this: (Test System: AMES SALMONELLA TYPHIMURIUM, Strain/Indicator: TA1537, Metabolic Activation: NONE) “inactive; negative”; (Test System: AMES SALMONELLA TYPHIMURIUM, Strain/Indicator: TA1537, Metabolic Activation: RAT, LIVER, S-9, PHENOBARBITAL AND 5,6-BENZOFLAVONE) “inactive; negative”; (Test System: E.COLI, Strain/Indicator: WP2 UVRA, Metabolic Activation: NONE) “inactive; negative”.
Take `Cn1c(-c2ccccc2)c(N=Nc2scc[n+]2C)c2ccccc21`: the mutagenic call is, setting by setting: under setting [9], “active; positive”; under setting [10], “active; positive”; under setting [11], “active; positive”; under setting [1], “active; inconclusive (previous evaluation positive)”; under setting [2], “active; inconclusive (previous evaluation positive)”.
In the case of `CC(=O)[C@@]1(C)O[C@]12C(=O)C=Cc1ccccc12`, the mutagenic call (Test System: AMES SALMONELLA TYPHIMURIUM, Strain/Indicator: TA100, Metabolic Activation: NONE, Method: PREINCUBATION) is “inactive; negative”.
As for `CC1(S(=O)(=O)O)CC(=O)c2ccccc2C1=O` (stereo unspecified) (tested in a mixture with another compound), the mutagenic call (Test System: AMES SALMONELLA TYPHIMURIUM, Strain/Indicator: TA98, Metabolic Activation: NONE, Method: SPIRAL ASSAY) is “inactive; negative”; the mutagenic call under setting [3] was “inactive; negative”; the mutagenic call (Test System: AMES SALMONELLA TYPHIMURIUM, Strain/Indicator: TA98, Metabolic Activation: RAT, LIVER, S-9, AROCLOR 1254, Method: SPIRAL ASSAY) is “inactive; negative”; the mutagenic call under setting [4] was “active; positive”; the mutagenic call (Test System: AMES SALMONELLA TYPHIMURIUM, Strain/Indicator: TA100, Metabolic Activation: NONE, Method: SPIRAL ASSAY) is “inactive; negative”; the mutagenic call under setting [5] is “inactive; negative”. Also, the mutagenic call runs as follows: (Test System: AMES SALMONELLA TYPHIMURIUM, Strain/Indicator: TA100, Metabolic Activation: RAT, LIVER, S-9, AROCLOR 1254, Method: SPIRAL ASSAY) “inactive; negative”; under setting [6], “inactive; negative”; (Test System: AMES SALMONELLA TYPHIMURIUM, Strain/Indicator: TA1535, Metabolic Activation: NONE, Method: SPIRAL ASSAY) “inactive; negative”; under setting [7], “inactive; negative”; (Test System: AMES SALMONELLA TYPHIMURIUM, Strain/Indicator: TA1535, Metabolic Activation: RAT, LIVER, S-9, AROCLOR 1254, Method: SPIRAL ASSAY) “inactive; negative”; under setting [8], “inactive; negative”. Also, the mutagenic call is, setting by setting: (Test System: AMES SALMONELLA TYPHIMURIUM, Strain/Indicator: TA1537, Metabolic Activation: NONE, Method: SPIRAL ASSAY) “inactive; negative”; under setting [10], “inactive; negative”; (Test System: AMES SALMONELLA TYPHIMURIUM, Strain/Indicator: TA1537, Metabolic Activation: RAT, LIVER, S-9, AROCLOR 1254, Method: SPIRAL ASSAY) “inactive; negative”; under setting [11], “inactive; negative”.
With `[Co]`, the mutagenic call (End Point: IN VITRO MICRONUCLEUS, Test System: HUMAN LYMPHOCYTES, Metabolic Activation: NONE) is “active; positive”; the mutagenic call under setting [3] was “active; positive”; the mutagenic call (Test System: AMES SALMONELLA TYPHIMURIUM, Strain/Indicator: TA98, Metabolic Activation: RAT, LIVER, S-9, PHENOBARBITAL, Method: STANDARD PLATE) was “inactive; negative”; the mutagenic call (Test System: AMES SALMONELLA TYPHIMURIUM, Strain/Indicator: TA102, Metabolic Activation: NONE, Method: STANDARD PLATE) was “inactive; negative”; the mutagenic call (Test System: AMES SALMONELLA TYPHIMURIUM, Strain/Indicator: TA102, Metabolic Activation: RAT, LIVER, S-9, PHENOBARBITAL, Method: STANDARD PLATE) is “inactive; negative”; the mutagenic call under setting [7] was “inactive; negative”. In addition, the mutagenic call is “inactive; negative” (Test System: AMES SALMONELLA TYPHIMURIUM, Strain/Indicator: TA1535, Metabolic Activation: RAT, LIVER, S-9, PHENOBARBITAL, Method: STANDARD PLATE); “active; positive” under setting [10]; “inactive; negative” (Test System: AMES SALMONELLA TYPHIMURIUM, Strain/Indicator: TA1537, Metabolic Activation: RAT, LIVER, S-9, PHENOBARBITAL, Method: STANDARD PLATE).
In the case of `O=C1c2ccccc2-c2cc3ccccc3cc21`, the mutagenic call is, setting by setting: under setting [3], “active; positive”; under setting [4], “active; positive”.
